This note sets out measurements from patent publication US9840503B2, “Heterocyclic compounds and uses thereof” (Incyte Corporation, priority 2015, dated 2017).

Some results are limits rather than exact numbers.

What all share (assay type): biochemical
One assay addresses AXL (Homo sapiens (Human), UniProt P30530). Description: TAM Enzymatic Assay (HTRF), AXL. The settings on record: 13.8 nM AXL, 100 uM ATP, 60 min room temperature. As to the method: (§1) The assay buffer contained 50 mM HEPES, pH7.5, 10 mM MgCl2, 1 mM EGTA, 0.01% NP-40 and 2 mM DTT. 0.5 ul test compounds dissolved in DMSO were transferred from compound plates to white 384-well assay plates (Greiner […] plates). […] A 1 mM stock solution of peptide substrate Biotin-[…]-amide (Quality Controlled Biochemicals, MA) dissolved in DMSO was diluted to 1 uM in assay buffer containing 100 uM ATP (for AXL and c-MER assays) or 20 uM ATP (for TYRO3 assay). 10 ul enzyme solution (or assay buffer for the enzyme blank) was added to the appropriate wells in each plate, and then 10 ul/well substrate solution was added to initiate the reaction. The plate was protected from light and incubated at room temperature for 60 min. […] The plate was incubated for 1 h at room temperature, and HTRF (homogenous time resolved fluorescence) signal was measured on a PHERAstar FS plate reader (BMG labtech). Percentage of inhibition was calculated for each concentration and IC50 value was generated from curve fitting with GraphPad Prism software.

In another assay the target is c-MER (Homo sapiens (Human), UniProt Q12866). Description: TAM Enzymatic Assay (HTRF), c-MER. The following applies: 4.1 nM c-MER, 100 uM ATP, 60 min room temperature. As to the method:
as §1

In another assay the target is TYRO3 (Homo sapiens (Human), UniProt Q06418). Description: TAM Enzymatic Assay (HTRF), TYRO3. The following applies: 0.366 nM TYRO3, 20 uM ATP, 60 min room temperature. As to the method:
as §1

AXL, sequence (P30530 26-894): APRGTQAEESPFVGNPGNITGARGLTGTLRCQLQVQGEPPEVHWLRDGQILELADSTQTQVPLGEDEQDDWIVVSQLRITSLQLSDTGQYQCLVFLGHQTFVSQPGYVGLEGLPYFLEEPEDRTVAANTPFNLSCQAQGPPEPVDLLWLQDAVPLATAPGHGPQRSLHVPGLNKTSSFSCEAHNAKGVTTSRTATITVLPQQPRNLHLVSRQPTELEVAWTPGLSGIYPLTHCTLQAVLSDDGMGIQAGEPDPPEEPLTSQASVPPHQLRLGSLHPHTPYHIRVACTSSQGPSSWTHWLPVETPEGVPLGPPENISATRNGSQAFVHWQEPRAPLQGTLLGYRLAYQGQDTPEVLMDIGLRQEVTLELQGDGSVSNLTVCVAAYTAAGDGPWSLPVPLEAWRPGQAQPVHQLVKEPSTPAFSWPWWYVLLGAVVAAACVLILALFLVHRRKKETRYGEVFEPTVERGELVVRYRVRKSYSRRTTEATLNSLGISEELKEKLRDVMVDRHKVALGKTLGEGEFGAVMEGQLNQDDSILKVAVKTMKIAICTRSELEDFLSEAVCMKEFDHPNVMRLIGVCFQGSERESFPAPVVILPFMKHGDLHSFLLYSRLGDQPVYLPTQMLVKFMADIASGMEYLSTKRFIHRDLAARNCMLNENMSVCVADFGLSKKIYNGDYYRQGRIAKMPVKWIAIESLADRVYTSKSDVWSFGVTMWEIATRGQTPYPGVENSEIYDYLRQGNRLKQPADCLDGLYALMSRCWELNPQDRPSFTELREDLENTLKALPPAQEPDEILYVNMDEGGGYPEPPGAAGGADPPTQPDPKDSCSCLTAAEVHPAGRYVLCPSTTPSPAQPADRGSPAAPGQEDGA
TYRO3, sequence (Q06418 41-890): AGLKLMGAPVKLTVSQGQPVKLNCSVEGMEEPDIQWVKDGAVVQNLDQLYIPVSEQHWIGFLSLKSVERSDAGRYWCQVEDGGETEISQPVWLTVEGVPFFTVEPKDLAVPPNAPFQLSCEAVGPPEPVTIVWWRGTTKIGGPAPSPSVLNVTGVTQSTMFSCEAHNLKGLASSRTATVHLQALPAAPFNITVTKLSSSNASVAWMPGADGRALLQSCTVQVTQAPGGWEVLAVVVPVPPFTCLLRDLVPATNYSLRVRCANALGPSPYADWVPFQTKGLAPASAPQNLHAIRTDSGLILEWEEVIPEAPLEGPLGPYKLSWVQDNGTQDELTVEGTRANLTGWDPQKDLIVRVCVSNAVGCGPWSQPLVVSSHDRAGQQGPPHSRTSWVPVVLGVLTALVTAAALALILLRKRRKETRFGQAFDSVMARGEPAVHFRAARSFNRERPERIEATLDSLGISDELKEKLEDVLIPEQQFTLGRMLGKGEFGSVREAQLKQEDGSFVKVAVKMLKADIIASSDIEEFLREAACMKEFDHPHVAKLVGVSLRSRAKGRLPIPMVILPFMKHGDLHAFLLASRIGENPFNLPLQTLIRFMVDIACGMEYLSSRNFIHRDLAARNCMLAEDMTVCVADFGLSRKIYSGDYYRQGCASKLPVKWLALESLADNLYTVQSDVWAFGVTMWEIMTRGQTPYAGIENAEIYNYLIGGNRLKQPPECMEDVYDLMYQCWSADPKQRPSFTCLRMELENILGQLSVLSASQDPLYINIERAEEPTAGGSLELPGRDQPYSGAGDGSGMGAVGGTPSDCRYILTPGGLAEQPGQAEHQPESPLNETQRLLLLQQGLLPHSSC
c-MER, sequence (Q12866 21-999): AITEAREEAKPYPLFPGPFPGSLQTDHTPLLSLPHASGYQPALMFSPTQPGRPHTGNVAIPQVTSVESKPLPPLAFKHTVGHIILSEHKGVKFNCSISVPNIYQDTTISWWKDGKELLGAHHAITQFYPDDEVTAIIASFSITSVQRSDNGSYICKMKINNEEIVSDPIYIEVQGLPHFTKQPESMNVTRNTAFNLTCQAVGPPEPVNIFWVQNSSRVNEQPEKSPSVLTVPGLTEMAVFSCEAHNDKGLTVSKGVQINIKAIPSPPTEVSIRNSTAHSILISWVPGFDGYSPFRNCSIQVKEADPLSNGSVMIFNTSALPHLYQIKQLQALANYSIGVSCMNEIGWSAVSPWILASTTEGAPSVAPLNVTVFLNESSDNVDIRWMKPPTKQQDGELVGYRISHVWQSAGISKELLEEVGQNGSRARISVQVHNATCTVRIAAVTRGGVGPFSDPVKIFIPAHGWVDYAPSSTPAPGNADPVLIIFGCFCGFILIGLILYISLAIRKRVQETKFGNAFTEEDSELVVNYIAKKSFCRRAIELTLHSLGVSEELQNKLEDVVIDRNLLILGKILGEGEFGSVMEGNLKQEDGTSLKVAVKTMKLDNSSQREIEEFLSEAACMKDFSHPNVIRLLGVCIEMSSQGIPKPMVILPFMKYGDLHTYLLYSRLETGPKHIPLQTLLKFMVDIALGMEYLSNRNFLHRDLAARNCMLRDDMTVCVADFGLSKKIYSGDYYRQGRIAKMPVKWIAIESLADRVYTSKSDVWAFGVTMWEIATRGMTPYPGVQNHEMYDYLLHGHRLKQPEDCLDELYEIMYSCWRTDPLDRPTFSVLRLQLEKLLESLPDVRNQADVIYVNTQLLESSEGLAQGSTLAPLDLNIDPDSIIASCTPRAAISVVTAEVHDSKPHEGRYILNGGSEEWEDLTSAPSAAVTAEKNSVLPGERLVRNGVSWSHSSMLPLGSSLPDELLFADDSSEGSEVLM

For `CCCCNc1ncc2c(n1)N([C@H]1CC[C@H](O)CC1)Cc1cc(CN3CCOCC3)ccc1-2` [Example 1, trans-4-[3-(Butylamino)-8-(morpholin-4-ylmethyl)pyrimido[4,5-c]isoquinolin-5(6H)-yl]cyclohexanol], the IC50 on AXL was over 1000 nM.

With `CCCCNc1ncc2c3ccc(CNC4CCCCC4)cc3c(=O)n([C@H]3CC[C@H](O)CC3)c2n1` [Example 2, 3-(Butylamino)-8-[(cyclohexylamino)methyl]-5-(trans-4-hydroxycyclohexyl)pyrimido[4,5-c]isoquinolin-6(5H)-one], the IC50 against c-MER and against TYRO3 was under 100 nM in each case.

In the case of `CCCCNc1ncc2c(n1)N([C@H]1CC[C@H](O)CC1)Cc1cc(CNC3CCCCC3)ccc1-2` [Example 3, trans-4-[3-(Butylamino)-8-[(cyclohexylamino)methyl]pyrimido[4,5-c]isoquinolin-5(6H)-yl]cyclohexanol], the IC50 at AXL, on c-MER and at TYRO3 was under 100 nM in each case.

Consider `CCCCNc1ncc2c3ccc(CNC4CCOCC4)cc3c(=O)n([C@H]3CC[C@H](O)CC3)c2n1` [Example 4, 3-(Butylamino)-5-(trans-4-hydroxycyclohexyl)-8-[(tetrahydro-2H-pyran-4-ylamino)methyl]pyrimido[4,5-c]isoquinolin-6(5H)-one], for which the IC50 on AXL is over 1000 nM; at c-MER, under 100 nM; against TYRO3, 100 to 1000 nM.

At AXL, `CCCCNc1ncc2c3ccc(CNCCO)cc3c(=O)n([C@H]3CC[C@H](O)CC3)c2n1` [Example 5, 3-(Butylamino)-5-(trans-4-hydroxycyclohexyl)-8-{[(2-hydroxyethyl)amino]methyl}pyrimido [4,5-c]isoquinolin-6(5H)-one] had an IC50 of over 1000 nM.

As to `CCCCNc1ncc2c3ccc(CNC4CCCCC4)cc3c(=O)n([C@H]3CC[C@H](N)CC3)c2n1` [Example 6, 5-(trans-4-aminocyclohexyl)-3-(butylamino)-8-((cyclohexylamino)methyl)pyrimido[4,5-c]isoquinolin-6(5H)-one], the IC50 against c-MER and at TYRO3 was under 100 nM throughout.

The compound `CCCCNc1ncc2c3ccc(-c4cnn(C)c4)cc3c(=O)n([C@H]3CC[C@H](O)CC3)c2n1` [Example 7, 3-(Butylamino)-5-(trans-4-hydroxycyclohexyl)-8-(1-methyl-1H-pyrazol-4-yl)pyrimido[4,5-c]isoquinolin-6(5H)-one] had an IC50 against AXL of over 1000 nM.

In the case of `CCCCNc1ncc2c3ccc(-c4c(F)cccc4F)cc3c(=O)n([C@H]3CC[C@H](O)CC3)c2n1` [Example 8, 3-(Butylamino)-8-(2,6-difluorophenyl)-5-(trans-4-hydroxycyclohexyl)pyrimido[4,5-c]isoquinolin-6(5H)-one], the half-maximal inhibitory concentration (IC50) on AXL, at c-MER and on TYRO3 was over 1000 nM each time.

With `CCCCNc1ncc2c(n1)N([C@H]1CC[C@H](N)CC1)Cc1cc(CNC3CCCCC3)ccc1-2` [Example 9, 5-(trans-4-Aminocyclohexyl)-N-butyl-8-[(cyclohexylamino)methyl]-5,6-dihydropyrimido [4,5-c]isoquinolin-3-amine], the IC50 against AXL, against c-MER and on TYRO3 was under 100 nM in each case.

`CCCCNc1ncc2c(n1)N([C@H]1CC[C@H](N)CC1)Cc1cc(CNC3CCOCC3)ccc1-2` [Example 10, 5-(trans-4-Aminocyclohexyl)-N-butyl-8-{[(tetrahydropyran-4-yl)amino]methyl}-5,6-dihydropyrimido[4,5-c]isoquinolin-3-amine]: the IC50 against c-MER and at TYRO3 was under 100 nM throughout.

Take `CCCCNc1ncc2c(n1)N([C@H]1CC[C@H](N)CC1)Cc1cc(CNC3CCCC3)ccc1-2` [Example 11, 5-(trans-4-aminocyclohexyl)-N-butyl-8-((cyclopentylamino)methyl)-5,6-dihydropyrimido[4,5-c]isoquinolin-3-amine]: the IC50 at c-MER and on TYRO3 was under 100 nM in each case.
